Source: article PMC8748687 (Nature Communications, 2022)

These sequences were tested on TCR YLQ7. Settings: not given.
Format: binding, human
For YLAPRTFML [GD_pangolin YLQ ortholog], the “Measured TCR ΔΔG, YLQ7” value was 1.7 kcal/mol.

Same assay, conditions: read-out: KD of TCR YLQ7 for peptide–HLA-A2
For KLQPLTFLL [MERS-KLQ], the Kd was > 50 µM.
For PLSKRQYLL [HKU1-PLS], the Kd was > 50 µM.
With PLTSRQYLL [OC43-PLT] the Kd was > 50 µM.
In the case of YLKPTTFML [SARS-YLK], the Kd is reported as > 50 µM.

The sequences below were run against TCR RLQ3. Settings: read-out: KD of TCR RLQ3 for peptide–HLA-A2.
Format: binding, human
With RLAALNAFV [NL63-RLA] the Kd was > 100 µM.
RLAALNVFV [229E-RLA] was tested, and the Kd was > 100 µM.
RLTALNAYV [HKU1-RLT] was tested, and the Kd was > 100 µM.
In the case of RLTTLNAFV [MERS-RLT], the Kd is reported as > 100 µM.
